Target: ABCB1 (Homo sapiens, UniProt P08183)
Experiment: biochemical

Chain of ABCB1 (P08183 whole entry): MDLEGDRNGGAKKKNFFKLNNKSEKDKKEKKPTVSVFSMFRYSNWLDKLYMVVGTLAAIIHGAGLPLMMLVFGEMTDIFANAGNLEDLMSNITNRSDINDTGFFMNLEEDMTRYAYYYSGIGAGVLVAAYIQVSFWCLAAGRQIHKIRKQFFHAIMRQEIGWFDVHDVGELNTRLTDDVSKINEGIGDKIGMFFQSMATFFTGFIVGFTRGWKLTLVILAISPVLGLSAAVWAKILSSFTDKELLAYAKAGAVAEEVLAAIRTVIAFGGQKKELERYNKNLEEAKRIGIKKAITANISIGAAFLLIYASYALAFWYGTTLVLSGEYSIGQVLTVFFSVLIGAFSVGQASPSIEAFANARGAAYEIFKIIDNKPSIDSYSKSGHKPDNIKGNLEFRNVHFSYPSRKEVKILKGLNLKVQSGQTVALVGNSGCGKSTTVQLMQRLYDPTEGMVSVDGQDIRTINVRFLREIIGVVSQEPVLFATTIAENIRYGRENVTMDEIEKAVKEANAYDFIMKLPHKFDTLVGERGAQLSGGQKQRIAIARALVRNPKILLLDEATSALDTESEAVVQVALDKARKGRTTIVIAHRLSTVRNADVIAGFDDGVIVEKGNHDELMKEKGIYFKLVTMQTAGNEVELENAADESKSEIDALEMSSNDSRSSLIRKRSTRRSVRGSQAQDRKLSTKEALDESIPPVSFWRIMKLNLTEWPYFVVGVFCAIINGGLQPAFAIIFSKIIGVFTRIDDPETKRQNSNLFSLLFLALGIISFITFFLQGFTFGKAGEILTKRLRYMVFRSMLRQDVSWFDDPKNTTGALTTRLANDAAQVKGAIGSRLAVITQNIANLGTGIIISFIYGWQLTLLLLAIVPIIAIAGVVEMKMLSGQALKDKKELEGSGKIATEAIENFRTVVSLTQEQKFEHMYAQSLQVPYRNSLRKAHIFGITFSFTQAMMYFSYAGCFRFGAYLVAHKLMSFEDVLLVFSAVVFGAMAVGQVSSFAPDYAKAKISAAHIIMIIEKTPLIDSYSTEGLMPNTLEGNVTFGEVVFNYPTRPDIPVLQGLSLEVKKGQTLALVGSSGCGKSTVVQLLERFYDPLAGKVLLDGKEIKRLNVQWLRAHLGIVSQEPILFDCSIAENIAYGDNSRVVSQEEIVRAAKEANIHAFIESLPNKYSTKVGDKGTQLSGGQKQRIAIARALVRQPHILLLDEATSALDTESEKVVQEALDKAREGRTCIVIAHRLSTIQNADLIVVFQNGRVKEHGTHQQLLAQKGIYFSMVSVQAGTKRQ

## CCn1cc(-c2ccnc3[nH]c(-c4cccc(CN(C)C)c4)cc23)c(-c2ccc(NC(=O)N(C)C)cc2)n1 [GSK-1070916]
  EC50: 830 nM
